Results as given in ChEMBL document CHEMBL4842390, “Amino-Heterocycle Tetrahydroisoquinoline CXCR4 Antagonists with Improved ADME Profiles via Late-Stage Buchwald Couplings” (ACS Med Chem Lett, 2021).
Active and inactive are the calls of the source. No cut-off for these calls is given here.

What was measured:
[1] = target: T1, C-X-C chemokine receptor type 2 (Homo sapiens) (UniProt P25025); experiment: Antagonist activity at CXCR2 (unknown origin) assessed as inhibition of ligand-induced calcium flux measured upto 10 uM; assay type: functional; conditions: dose microM <=10
T1 sequence (whole entry): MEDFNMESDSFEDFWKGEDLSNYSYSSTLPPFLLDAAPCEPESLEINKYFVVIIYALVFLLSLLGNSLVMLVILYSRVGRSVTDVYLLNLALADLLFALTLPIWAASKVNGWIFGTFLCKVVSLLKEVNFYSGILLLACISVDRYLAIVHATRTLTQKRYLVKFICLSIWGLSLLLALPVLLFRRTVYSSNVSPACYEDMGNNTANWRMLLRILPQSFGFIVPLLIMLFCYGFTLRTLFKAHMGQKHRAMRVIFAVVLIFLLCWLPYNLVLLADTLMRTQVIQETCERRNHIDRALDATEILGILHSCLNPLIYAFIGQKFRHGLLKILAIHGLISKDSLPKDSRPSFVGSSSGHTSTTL

[2] = target: T2, C-C chemokine receptor type 7 (Homo sapiens) (UniProt P32248); experiment: Antagonist activity at CCR7 (unknown origin) assessed as inhibition of ligand-induced calcium flux measured upto 10 uM; assay type: functional; conditions: dose microM <=10
T2 sequence (whole entry): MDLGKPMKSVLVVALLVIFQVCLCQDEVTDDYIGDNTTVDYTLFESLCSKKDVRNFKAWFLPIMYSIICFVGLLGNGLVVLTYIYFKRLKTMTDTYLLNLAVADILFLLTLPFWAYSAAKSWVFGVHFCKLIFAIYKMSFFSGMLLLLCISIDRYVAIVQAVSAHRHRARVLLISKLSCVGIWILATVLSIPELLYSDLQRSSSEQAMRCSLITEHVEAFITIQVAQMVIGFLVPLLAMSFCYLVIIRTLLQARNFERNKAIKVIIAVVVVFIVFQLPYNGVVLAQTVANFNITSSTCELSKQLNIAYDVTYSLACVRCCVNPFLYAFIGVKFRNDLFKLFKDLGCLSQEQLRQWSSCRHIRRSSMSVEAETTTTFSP

[3] = C8h in CD-1 mouse at 30 mg/kg, po or at 3 mg/kg, iv measured up to 8 hrs by UPLC-MS/MS analysis; conditions: in vivo
[4] = target: Voltage-gated inwardly rectifying potassium channel KCNH2 (Homo sapiens, UniProt Q12809); experiment: Inhibition of human ERG by automated patch clamp method
Sequence of Voltage-gated inwardly rectifying potassium channel KCNH2 (Q12809 whole entry): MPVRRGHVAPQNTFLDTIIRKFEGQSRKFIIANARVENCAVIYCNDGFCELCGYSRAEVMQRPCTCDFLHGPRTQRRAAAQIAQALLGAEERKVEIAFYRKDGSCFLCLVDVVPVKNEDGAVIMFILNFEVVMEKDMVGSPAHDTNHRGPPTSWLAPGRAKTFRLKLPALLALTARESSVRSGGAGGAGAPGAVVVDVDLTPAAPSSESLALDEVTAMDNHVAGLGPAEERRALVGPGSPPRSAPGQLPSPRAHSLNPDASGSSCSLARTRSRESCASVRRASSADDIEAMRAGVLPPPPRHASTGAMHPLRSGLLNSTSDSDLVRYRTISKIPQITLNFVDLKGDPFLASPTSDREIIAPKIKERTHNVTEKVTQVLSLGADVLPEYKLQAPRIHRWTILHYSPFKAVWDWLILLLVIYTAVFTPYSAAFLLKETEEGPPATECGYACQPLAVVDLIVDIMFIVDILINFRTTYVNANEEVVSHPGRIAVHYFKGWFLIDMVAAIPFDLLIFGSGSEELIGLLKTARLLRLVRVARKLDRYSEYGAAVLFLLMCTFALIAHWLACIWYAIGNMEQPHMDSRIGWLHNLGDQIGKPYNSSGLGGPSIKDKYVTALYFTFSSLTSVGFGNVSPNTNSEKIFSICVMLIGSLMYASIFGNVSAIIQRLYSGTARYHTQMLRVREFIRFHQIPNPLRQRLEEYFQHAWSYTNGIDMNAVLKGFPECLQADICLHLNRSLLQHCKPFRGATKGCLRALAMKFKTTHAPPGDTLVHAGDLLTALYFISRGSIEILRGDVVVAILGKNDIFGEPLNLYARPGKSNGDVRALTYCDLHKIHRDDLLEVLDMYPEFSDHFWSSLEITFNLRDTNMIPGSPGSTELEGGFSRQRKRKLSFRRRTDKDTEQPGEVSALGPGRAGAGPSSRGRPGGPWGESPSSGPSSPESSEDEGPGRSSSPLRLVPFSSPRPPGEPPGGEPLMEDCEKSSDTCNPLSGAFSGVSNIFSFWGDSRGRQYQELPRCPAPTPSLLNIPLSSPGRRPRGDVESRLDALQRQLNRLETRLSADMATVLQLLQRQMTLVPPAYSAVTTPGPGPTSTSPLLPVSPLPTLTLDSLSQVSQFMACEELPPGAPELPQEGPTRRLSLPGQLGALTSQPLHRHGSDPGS

[5] = AUC (0 to t) in CD-1 mouse at 30 mg/kg, po or at 3 mg/kg, iv measured after 8 hrs by LC-MS/MS analysis; assay type: ADME, organism-based; set-up: time 8 hrs, dose 30 mg/kg; conditions: in vivo
[6] = target: C-C chemokine receptor type 5 (Homo sapiens) (UniProt P51681); experiment: Antagonist activity at CCR5 (unknown origin) assessed as inhibition of ligand-induced calcium flux measured upto 10 uM; assay type: functional; conditions: dose microM <=10
Sequence of C-C chemokine receptor type 5 (Homo sapiens) (P51681 whole entry, looked up): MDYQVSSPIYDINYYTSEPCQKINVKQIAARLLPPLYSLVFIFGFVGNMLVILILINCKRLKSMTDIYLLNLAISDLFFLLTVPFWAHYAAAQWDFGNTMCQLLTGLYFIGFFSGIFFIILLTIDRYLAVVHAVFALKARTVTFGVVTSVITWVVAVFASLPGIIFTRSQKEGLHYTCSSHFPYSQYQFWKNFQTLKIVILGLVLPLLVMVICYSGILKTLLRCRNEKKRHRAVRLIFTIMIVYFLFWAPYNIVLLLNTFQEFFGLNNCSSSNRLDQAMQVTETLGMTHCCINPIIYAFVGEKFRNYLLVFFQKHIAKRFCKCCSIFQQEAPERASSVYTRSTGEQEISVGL

[7] = Permeability of the compound at pH 7.4 incubated for 4 hrs by PAMPA; assay type: ADME; conditions: read-out: permeability
[8] = Metabolic stability in mouse liver microsomes assessed as parent compound remaining incubated for 10 mins in presence of NADPH; assay type: ADME, Microsome; conditions: read-out: Stabilty
[9] = Cmax in CD-1 mouse at 30 mg/kg, po or at 3 mg/kg, iv by UPLC-MS/MS analysis; assay type: ADME, organism-based; set-up: dose 30 mg/kg; conditions: in vivo
[10] = target: C-X-C chemokine receptor type 4 (Homo sapiens, UniProt P61073); experiment: Antagonist activity at CXCR4 receptor in human CCRF-CEM cells assessed as inhibition of SDF-1alpha-induced calcium release preincubated for 25 mins followed by SDF-1alpha addition and monitered for 90 sec; assay type: functional, cell-based
Sequence of C-X-C chemokine receptor type 4 (P61073 whole entry): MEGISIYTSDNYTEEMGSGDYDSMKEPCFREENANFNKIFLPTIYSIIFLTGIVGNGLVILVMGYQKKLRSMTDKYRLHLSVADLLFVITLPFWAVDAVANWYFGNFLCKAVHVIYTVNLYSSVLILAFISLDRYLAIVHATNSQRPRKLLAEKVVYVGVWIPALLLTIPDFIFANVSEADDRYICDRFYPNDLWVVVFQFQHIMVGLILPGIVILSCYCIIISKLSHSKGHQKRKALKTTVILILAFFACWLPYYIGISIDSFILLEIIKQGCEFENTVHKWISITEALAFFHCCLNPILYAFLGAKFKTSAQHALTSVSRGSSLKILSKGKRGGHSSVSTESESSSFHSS

[11] = Metabolic stability in rat liver microsomes assessed as parent compound remaining incubated for 10 mins in presence of NADPH; assay type: ADME, Microsome; conditions: read-out: Stabilty
[12] = Volume of distribution in CD-1 mouse at 30 mg/kg, po or at 3 mg/kg, iv by UPLC-MS/MS analysis; assay type: ADME, organism-based; conditions: in vivo
cells = conditions: Homo sapiens, CCRF-CEM
Description: Antagonist activity at muscarinic acetylcholine receptor in human CCRF-CEM cells assessed as inhibition of acetylcholine-induced calcium release preincubated for 25 mins followed by acetylcholine addition and monitered for 90 sec

[13] = target: T3, C-X-C chemokine receptor type 3 (Homo sapiens) (UniProt P49682); experiment: Antagonist activity at CXCR3 (unknown origin) assessed as inhibition of ligand-induced calcium flux measured upto 10 uM; assay type: functional; conditions: dose microM <=10
T3 sequence (whole entry): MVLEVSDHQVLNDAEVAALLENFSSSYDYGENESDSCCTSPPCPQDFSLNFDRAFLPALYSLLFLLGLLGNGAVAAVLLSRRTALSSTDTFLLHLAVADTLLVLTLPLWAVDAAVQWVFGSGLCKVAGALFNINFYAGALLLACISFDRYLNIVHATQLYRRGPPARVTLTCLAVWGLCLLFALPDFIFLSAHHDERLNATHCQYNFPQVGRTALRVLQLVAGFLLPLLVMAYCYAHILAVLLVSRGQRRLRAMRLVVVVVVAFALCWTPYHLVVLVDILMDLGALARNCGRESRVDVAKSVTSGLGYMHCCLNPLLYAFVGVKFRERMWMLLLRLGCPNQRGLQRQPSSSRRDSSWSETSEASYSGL

[14] = Clearance in CD-1 mouse at 30 mg/kg, po or at 3 mg/kg, iv by UPLC-MS/MS analysis; assay type: ADME, organism-based; conditions: in vivo
[15] = Metabolic stability in human liver microsomes assessed as parent compound remaining incubated for 10 mins in presence of NADPH; assay type: ADME, Microsome; conditions: read-out: Stabilty
[16] = target: T4, C-C chemokine receptor type 6 (Homo sapiens) (UniProt P51684); experiment: Antagonist activity at CCR6 (unknown origin) assessed as inhibition of ligand-induced calcium flux measured upto 10 uM; assay type: functional; conditions: dose microM <=10
T4 sequence (whole entry): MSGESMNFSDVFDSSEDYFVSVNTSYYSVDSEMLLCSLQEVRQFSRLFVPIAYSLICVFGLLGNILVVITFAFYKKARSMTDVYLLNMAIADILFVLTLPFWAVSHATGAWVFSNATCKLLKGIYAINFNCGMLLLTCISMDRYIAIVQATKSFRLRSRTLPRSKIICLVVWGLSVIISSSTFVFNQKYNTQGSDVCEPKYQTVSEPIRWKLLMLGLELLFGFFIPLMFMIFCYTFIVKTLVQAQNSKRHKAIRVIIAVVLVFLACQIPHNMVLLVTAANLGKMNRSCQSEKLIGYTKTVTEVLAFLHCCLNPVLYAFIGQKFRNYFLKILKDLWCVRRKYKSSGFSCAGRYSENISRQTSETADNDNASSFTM

Cytochrome P450 2D6 = Cytochrome P450 2D6 (Homo sapiens, UniProt P10635); experiment: Inhibition of human recombinant CYP2D6 expressed in insect cells using AMMC as substrate preincubated for 30 mins followed by NADPH regenerating system addition and measured after 45 mins by fluorescence based assay; assay type: ADME
Sequence of Cytochrome P450 2D6 (P10635 whole entry): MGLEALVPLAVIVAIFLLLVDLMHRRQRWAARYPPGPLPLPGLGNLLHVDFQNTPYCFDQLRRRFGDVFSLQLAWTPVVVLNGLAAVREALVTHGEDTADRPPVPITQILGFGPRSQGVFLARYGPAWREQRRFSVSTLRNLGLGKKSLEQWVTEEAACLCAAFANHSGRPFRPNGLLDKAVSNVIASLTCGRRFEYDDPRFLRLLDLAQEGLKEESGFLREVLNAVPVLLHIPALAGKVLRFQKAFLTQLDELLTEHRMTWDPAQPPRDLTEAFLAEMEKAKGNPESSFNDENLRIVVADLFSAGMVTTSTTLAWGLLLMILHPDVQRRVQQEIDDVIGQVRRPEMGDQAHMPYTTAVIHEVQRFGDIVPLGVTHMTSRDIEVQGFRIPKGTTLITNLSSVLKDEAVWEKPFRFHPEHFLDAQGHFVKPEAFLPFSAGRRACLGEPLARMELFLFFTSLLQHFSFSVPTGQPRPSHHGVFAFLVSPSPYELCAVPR

[17] = Oral bioavailability in CD1 mouse at 30 mg/kg measured after 8 hrs by LC-MS/MS analysis; assay type: ADME, organism-based; conditions: in vivo
[18] = Half life in CD1 mouse at 30 mg/kg, po or at 3 mg/kg, iv measured after 8 hrs by LC-MS/MS analysis; assay type: ADME, organism-based; conditions: in vivo
[19] = target: T5, C-X-C chemokine receptor type 1 (Homo sapiens) (UniProt P25024); experiment: Antagonist activity at CXCR1 (unknown origin) assessed as inhibition of ligand-induced calcium flux measured upto 10 uM; assay type: functional; conditions: dose microM <=10
T5 sequence (whole entry): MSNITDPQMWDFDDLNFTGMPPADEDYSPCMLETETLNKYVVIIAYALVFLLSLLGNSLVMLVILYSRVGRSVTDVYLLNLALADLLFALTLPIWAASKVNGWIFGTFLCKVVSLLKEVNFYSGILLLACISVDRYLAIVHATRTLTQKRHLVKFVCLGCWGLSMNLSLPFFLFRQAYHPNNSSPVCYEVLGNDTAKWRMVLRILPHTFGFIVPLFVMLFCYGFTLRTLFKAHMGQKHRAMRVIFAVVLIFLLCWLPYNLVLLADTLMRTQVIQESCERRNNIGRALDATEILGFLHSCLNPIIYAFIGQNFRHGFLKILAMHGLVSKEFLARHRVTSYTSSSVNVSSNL

[20] = target: T6, C-C chemokine receptor type 4 (Homo sapiens) (UniProt P51679); experiment: Antagonist activity at CCR4 (unknown origin) assessed as inhibition of ligand-induced calcium flux measured upto 10 uM; assay type: functional; conditions: dose microM <=10
T6 sequence (whole entry): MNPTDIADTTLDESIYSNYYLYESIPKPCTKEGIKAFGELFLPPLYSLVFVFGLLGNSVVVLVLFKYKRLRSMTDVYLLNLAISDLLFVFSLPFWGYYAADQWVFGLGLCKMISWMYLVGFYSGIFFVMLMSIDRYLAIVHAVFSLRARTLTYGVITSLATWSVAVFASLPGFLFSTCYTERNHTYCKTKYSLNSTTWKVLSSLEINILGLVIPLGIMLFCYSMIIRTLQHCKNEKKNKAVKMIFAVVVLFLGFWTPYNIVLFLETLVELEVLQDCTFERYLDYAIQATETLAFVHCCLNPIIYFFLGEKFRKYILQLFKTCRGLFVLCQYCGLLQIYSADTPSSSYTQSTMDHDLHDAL

Cytochrome P450 3A4 = Cytochrome P450 3A4 (Homo sapiens, UniProt P08684); experiment: Inhibition of CYP3A4 (unknown origin); assay type: ADME
Sequence of Cytochrome P450 3A4 (P08684 whole entry): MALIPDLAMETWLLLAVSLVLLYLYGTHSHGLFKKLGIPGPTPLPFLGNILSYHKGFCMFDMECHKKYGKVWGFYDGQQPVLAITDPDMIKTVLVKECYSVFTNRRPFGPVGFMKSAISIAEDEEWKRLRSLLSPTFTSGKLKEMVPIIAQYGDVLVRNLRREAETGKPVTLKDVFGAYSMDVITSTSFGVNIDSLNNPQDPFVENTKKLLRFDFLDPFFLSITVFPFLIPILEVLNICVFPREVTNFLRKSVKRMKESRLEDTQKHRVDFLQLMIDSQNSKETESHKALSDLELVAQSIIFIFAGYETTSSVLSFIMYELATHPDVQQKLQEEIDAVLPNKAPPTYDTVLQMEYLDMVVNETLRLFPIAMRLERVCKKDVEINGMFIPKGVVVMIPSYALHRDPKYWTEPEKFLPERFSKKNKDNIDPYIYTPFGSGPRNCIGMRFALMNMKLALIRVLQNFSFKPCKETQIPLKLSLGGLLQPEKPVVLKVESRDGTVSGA

- Activity [1]: inactive
- Activity [2]: inactive
- C8h at 8 h [3]: 297 ng/mL
- AUC(0-t) at 8 h [5]: 4000 ng·h/mL
- Activity [6]: inactive
- Papp at 4 h [7]: 23.5 ×10⁻⁶ cm/s
- remaining at 10 min [8]: 85.8%
- Cmax [9]: 791 ng/mL
- IC50 [10]: 0.0474 µM
- remaining at 10 min [11]: 21%
- Vd [12]: 9.35 L/kg
- IC50 (cells): > 16.7 µM
- Activity [13]: inactive
- clearance [14]: 30.5 mL/min/kg
- remaining at 10 min [15]: 73.6%
- Activity [16]: inactive
- IC50 (Cytochrome P450 2D6): > 20 µM
- bioavailability [17]: 24%
- half-life [18]: 3.5 h
- Activity [19]: inactive
- Activity [20]: inactive
- IC50 (Cytochrome P450 3A4): > 20 µM
SMILES: CN1CCN(Nc2cccc3c2CC(CN(C)[C@H]2CCCc4cccnc42)NC3)CC1 (single isomer, unassigned)
- IC50 [4]: 6.8 µM
